Marks after values point to notes of the source that are not given here.
How the values were obtained:
human topoisomerase IIα = tested on: human topoisomerase IIα; set-up: method as in PMID 18461976; conditions: 100 μM solutions; cited from earlier work
Topoisomerase II α human = target: T1, Topoisomerase II α human (Homo sapiens, UniProt P11388); assay: Isothermal titration calorimetry (ITC) of interactions with TOPIIα; type: binding; conditions: single compounds; for ∆G (kJ/mol) ITC / ∆H (kJ/mol) ITC: 36.6 °C, mean ± SD, n = 6
T1 construct: purchased Sigma Aldrich (St. Louis, MO, USA)
T1 sequence (P11388 whole entry): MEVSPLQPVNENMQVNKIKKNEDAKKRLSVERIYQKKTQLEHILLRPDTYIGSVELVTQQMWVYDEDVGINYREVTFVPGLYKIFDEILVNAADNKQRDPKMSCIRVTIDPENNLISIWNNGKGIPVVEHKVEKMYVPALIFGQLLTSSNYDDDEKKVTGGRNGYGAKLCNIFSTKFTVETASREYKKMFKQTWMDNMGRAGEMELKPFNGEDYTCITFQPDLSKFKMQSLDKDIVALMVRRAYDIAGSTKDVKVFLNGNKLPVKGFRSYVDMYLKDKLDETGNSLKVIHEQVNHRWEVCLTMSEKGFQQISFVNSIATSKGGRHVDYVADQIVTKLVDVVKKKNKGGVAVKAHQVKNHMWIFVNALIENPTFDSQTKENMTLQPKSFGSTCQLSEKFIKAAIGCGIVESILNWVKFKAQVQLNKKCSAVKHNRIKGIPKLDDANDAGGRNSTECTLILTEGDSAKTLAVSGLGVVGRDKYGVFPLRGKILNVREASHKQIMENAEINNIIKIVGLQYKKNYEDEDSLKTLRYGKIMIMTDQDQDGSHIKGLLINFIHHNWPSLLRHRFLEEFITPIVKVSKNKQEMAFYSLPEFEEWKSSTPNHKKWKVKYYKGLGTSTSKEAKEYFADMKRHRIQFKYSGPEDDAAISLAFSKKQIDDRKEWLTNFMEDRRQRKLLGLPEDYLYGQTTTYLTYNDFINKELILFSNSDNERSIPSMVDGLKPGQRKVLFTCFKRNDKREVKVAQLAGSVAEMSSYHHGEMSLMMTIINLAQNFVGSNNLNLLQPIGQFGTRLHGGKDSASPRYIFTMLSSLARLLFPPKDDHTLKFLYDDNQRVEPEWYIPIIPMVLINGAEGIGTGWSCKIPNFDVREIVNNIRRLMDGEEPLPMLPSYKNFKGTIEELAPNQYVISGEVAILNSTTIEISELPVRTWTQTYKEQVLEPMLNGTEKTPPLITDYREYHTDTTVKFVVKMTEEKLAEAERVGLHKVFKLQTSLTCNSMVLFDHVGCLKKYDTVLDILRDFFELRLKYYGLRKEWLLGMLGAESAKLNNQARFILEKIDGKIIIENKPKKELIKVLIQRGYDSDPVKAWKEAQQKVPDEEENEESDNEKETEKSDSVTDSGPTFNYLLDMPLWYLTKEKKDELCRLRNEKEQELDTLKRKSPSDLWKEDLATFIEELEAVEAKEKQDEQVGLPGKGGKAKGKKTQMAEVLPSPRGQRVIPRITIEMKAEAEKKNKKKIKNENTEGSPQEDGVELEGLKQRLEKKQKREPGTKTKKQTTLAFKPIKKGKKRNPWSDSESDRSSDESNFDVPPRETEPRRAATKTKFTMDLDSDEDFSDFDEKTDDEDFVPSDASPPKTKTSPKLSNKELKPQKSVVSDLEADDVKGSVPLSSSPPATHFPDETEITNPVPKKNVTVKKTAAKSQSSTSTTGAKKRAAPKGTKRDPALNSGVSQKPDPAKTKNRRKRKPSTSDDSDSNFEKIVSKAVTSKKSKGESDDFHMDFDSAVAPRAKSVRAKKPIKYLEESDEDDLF
Experimental: The parameters of interactions of coffee and its components with TOPIIα were carried out using the isothermal titration calorimetry (ITC) (MicroCal PEAQ-ITC 200, Malvern, Worcestershire, UK). Analyses were carried out according to Grzelczyk et al., with some modifications. A calorimeter cell with a capacity of 0.2 mL was filled with 0.1 μmol/L of TOPIIα solution in ultrapure water (deionized, LC-MS grade); the syringe was subsequently filled with titrants as degassed aqueous solutions of chlorogenic acids (CHAs); green, light-, or dark-roasted coffee extracts; coffee fraction; before and after in vitro digestion, at concentrations of 10 mmol/L (coffee extracts at concentrations of 0.1 mmol/L calculated based on 5-caffeoylquinic acid). The measurements were carried out at 36.6 °C with continuous stirring at 307 rpm (10 injections, 25 min). During the ITC analysis, an exothermic or endothermic reaction was recorded, when the binding of compounds to the enzyme occurred. The heat was generated as a consequence of ligand-to-protein binding, which is observed as an energy peak (raw data of heat in […]). The titration of a ligand into water was performed to subtract the energetic effects of dilution. The enthalpy changes (∆H), Gibbs free energy changes (∆G), and entropy changes (∆S) were calculated from the ITC titration nonlinear least squares saturation curve fitting carried out using MicroCal PEAQ-ITC200 software 1.30 [40].

[1] = listed as 4,5-di-O-caffeoylquinic acid

Row | ∆G (kJ/mol) ITC (Topoisomerase II α human) | ∆H (kJ/mol) ITC (Topoisomerase II α human) | Structure (SMILES) | mode of action on human topoisomerase IIα (human topoisomerase IIα) | other results
1 | −34.42 ± 1.33 ^d kJ/mol | −6.49 ± 0.29 ^e kJ/mol | O=C(O)CCc1ccc(O)c(O)c1 [Dihydrocaffeic acid] |  | 
2 | −37.64 ± 1.35 ^c kJ/mol | −1.78 ± 0.15 ^d kJ/mol | O=C(C=Cc1ccc(O)c(O)c1)OC1CC(O)(C(=O)O)CC(O)C1OC(=O)C=Cc1ccc(O)c(O)c1 (centres unmarked) [4,5-Di-O-caffeoylquinic acid] |  | ∆G (kJ/mol) ITC (Topoisomerase II α human; [1]): -37.64 kJ/mol; ∆H (kJ/mol) ITC (Topoisomerase II α human; [1]): -1.78 kJ/mol
3 | −33.54 ± 1.09 ^a kJ/mol | −9.04 ± 0.25 ^a kJ/mol | O=C(O)/C=C/c1ccc(O)c(O)c1 [Caffeic acid] |  | 
4 | −33.87 ± 1.39 ^a kJ/mol | −8.00 ± 0.45 ^c,a kJ/mol | O=C(C=Cc1ccc(O)c(O)c1)OC1CC(O)(C(=O)O)CC(OC(=O)C=Cc2ccc(O)c(O)c2)C1O (centres unmarked) [3,5-Di-O-caffeoylquinic acid] |  | 

Further lines, the compound ahead of its results:

Row | Structure (SMILES) | ∆G (kJ/mol) ITC (Topoisomerase II α human) | ∆H (kJ/mol) ITC (Topoisomerase II α human) | mode of action on human topoisomerase IIα (human topoisomerase IIα) | other results
5 | O=c1c(O)c(-c2cc(O)c(O)c(O)c2)oc2cc(O)cc(O)c12 [myricetin] |  |  | redox-dependent poisons rather than the enzyme inhibitors | 
6 | C=CC(N)=O [Acrylamide] |  |  |  | interactions with TOPIIα in ITC measurements (Topoisomerase II α human): did not show significant interactions
7 | O=c1c(O)c(-c2ccc(O)cc2)oc2cc(O)cc(O)c12 [kaempferol] |  |  | redox-dependent poisons rather than the enzyme inhibitors | 
8 | Cn1c(=O)c2c(ncn2C)n(C)c1=O [Caffeine, reference compound] | −34.50 ± 1.15 ^d kJ/mol | −6.28 ± 0.45 ^e kJ/mol |  | 
9 | O=Cc1ccc(CO)o1 [5-(Hydroxymethyl)furfural] |  |  |  | interactions with TOPIIα in ITC measurements (Topoisomerase II α human): did not show significant interactions
10 | O=c1c(O)c(-c2ccc(O)c(O)c2)oc2cc(O)cc(O)c12 [quercetin] |  |  | redox-dependent poisons rather than the enzyme inhibitors | 
